Measurements: ChEMBL document CHEMBL1909046, “DrugMatrix in vitro pharmacology data”

How the values were obtained:
[1] = biological target: cGMP-specific 3',5'-cyclic phosphodiesterase (Homo sapiens, UniProt O76074); test: DRUGMATRIX: Phosphodiesterase PDE5 enzyme inhibition (substrate: [3H]cGMP + cGMP); assay type: tissue-based, Platelet; conditions: platelet; Not Active = under 50% inhibition at 10 µM
[2] = biological target: Tyrosine-protein kinase Fyn (Homo sapiens, UniProt P06241); test: biochemical; assay type: cell-based, Insect cells; conditions: insect cells;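 also: enzymatic inhibition of Fyn kinase activity measured with Poly(Glu:Tyr) as the phosphorylation substrate; in other assays of this panel Not Active means under 50% inhibition at 10 µM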
Chain of Tyrosine-protein kinase Fyn (P06241 whole entry): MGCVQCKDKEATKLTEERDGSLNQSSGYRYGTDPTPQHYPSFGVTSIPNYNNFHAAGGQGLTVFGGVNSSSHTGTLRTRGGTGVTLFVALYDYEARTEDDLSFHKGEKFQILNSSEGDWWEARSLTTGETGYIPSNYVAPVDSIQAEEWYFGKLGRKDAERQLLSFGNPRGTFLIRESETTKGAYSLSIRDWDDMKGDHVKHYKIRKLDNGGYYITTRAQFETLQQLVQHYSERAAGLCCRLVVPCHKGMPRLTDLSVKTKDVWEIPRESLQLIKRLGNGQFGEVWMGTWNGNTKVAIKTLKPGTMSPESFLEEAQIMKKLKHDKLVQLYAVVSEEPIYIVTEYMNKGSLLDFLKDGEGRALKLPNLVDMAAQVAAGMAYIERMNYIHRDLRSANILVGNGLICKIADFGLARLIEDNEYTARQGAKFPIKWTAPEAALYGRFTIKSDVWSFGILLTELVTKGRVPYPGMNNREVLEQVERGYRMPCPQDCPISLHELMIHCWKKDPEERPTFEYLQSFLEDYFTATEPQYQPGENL

[3] = biological target: T1, Cysteinyl leukotriene receptor 1 (Homo sapiens, UniProt Q9Y271); assay type: cell membranes, Membrane; conditions: cho-k1; also: in other assays of this panel Not Active means under 50% inhibition at 10 µM
T1 sequence (Q9Y271 whole entry): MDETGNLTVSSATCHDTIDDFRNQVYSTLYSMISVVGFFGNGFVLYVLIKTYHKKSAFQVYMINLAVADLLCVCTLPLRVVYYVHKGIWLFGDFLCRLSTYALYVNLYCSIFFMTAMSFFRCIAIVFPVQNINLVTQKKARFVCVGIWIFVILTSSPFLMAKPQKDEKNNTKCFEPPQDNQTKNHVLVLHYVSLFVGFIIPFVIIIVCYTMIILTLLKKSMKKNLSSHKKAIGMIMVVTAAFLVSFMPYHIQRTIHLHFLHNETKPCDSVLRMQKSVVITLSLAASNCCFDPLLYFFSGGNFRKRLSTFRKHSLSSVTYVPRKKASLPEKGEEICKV

[4] = biological target: Mitogen-activated protein kinase 1 (Homo sapiens, UniProt P28482); test: DRUGMATRIX: Protein Serine/Threonine Kinase, ERK2 enzyme inhibition (substrate: Myelin Basic Protein); set-up: species or system Escherichia coli; conditions: Not Active = under 50% inhibition at 10 µM
Chain of Mitogen-activated protein kinase 1 (P28482 whole entry): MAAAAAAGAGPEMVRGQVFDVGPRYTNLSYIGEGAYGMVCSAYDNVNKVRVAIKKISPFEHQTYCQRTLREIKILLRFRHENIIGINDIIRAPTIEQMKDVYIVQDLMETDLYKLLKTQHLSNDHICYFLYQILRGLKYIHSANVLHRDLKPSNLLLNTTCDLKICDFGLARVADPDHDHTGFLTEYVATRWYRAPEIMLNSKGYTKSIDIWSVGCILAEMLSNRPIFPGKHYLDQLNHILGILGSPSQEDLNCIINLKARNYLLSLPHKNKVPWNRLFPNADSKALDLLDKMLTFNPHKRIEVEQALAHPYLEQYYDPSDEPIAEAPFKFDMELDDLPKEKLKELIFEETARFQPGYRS

Cytochrome P450 2C9 = Cytochrome P450 2C9 (Homo sapiens, UniProt P11712); conditions: bti-tn-5b1-4; also: in other assays of this panel Not Active means under 50% inhibition at 10 µM
Chain of Cytochrome P450 2C9 (P11712 whole entry): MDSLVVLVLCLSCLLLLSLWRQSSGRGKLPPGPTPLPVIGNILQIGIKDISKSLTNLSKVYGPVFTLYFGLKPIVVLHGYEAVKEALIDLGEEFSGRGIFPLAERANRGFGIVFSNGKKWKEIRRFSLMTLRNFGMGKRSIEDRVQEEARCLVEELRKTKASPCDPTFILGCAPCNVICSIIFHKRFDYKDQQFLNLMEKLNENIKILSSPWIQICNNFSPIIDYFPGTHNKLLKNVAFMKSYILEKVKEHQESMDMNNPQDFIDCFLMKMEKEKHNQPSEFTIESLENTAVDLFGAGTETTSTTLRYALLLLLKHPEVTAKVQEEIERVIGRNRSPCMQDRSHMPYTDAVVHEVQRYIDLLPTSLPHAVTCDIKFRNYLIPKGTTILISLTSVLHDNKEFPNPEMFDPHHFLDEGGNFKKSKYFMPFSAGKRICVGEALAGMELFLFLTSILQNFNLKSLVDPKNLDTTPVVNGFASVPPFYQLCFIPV

[5] = DRUGMATRIX: Glutamate, Kainate radioligand binding (ligand: [3H] Kainic acid); assay type: cell membranes, Rattus norvegicus, Wistar, Brain, Membrane; conditions: Not Active = under 50% inhibition at 10 µM
[6] = DRUGMATRIX: GABAA, Muscimol, Central radioligand binding (ligand: [3H] Muscimol); assay type: cell membranes, Rattus norvegicus, Wistar, Brain, Membrane; conditions: Not Active = under 50% inhibition at 10 µM
[7] = DRUGMATRIX: Glutamate, NMDA, Phencyclidine radioligand binding (ligand: [3H] TCP); assay type: cell membranes, Rattus norvegicus, Wistar, Cerebral cortex, Membrane; conditions: Not Active = under 50% inhibition at 10 µM

With `CC1=NN(c2ccccc2)C(=O)C1` [EDARAVONE] the IC50 [1] was “Not Active”, the IC50 [2] was “Not Active” and the IC50 [3] was “Not Active”. For the same molecule, the IC50 [4] was “Not Active”, the IC50 (Cytochrome P450 2C9) was “Not Active” and the Ki (Cytochrome P450 2C9) was “Not Active”. The IC50 [5] was “Not Active”, the Ki [5] was “Not Active” and the IC50 [6] was “Not Active”. For the same molecule, the Ki [6] was “Not Active”, the IC50 [7] was “Not Active” and the Ki [7] was “Not Active”.
In the case of `Cc1cc(O)cc(C)c1Cl` [CHLOROXYLENOL], the IC50 [1] is reported as “Not Active”, the IC50 [2] is reported as “Not Active” and the IC50 [3] is reported as “Not Active”. For the same molecule, the IC50 [4] was “Not Active”, the IC50 (Cytochrome P450 2C9) was “Not Active” and the Ki (Cytochrome P450 2C9) was “Not Active”. For the same molecule, the IC50 [5] was “Not Active”, the Ki [5] was “Not Active” and the IC50 [6] was “Not Active”. The Ki [6] was “Not Active”, the IC50 [7] was “Not Active” and the Ki [7] was “Not Active”.
With `CCOC(=O)c1ncn2c1CN(C)C(=O)c1cc(F)ccc1-2` [FLUMAZENIL] the IC50 [1] was “Not Active”, the IC50 [2] was “Not Active” and the IC50 [3] was “Not Active”. The IC50 [4] was “Not Active”, the IC50 (Cytochrome P450 2C9) was “Not Active” and the Ki (Cytochrome P450 2C9) was “Not Active”. For the same molecule, the IC50 [5] was “Not Active”, the Ki [5] was “Not Active” and the IC50 [6] was “Not Active”. The Ki [6] was “Not Active”, the IC50 [7] was “Not Active” and the Ki [7] was “Not Active”.
In the case of COBALTOUS CHLORIDE, the IC50 [1] is reported as “Not Active”, the Ki [1] is reported as “Not Active” and the IC50 [2] is reported as “Not Active”. The Ki [2] was “Not Active”, the IC50 [3] was “Not Active” and the Ki [3] was “Not Active”. For the same molecule, the IC50 [4] was “Not Active”, the Ki [4] was “Not Active” and the IC50 (Cytochrome P450 2C9) was “Not Active”. The Ki (Cytochrome P450 2C9) was “Not Active”, the IC50 [5] was “Not Active” and the Ki [5] was “Not Active”. The IC50 [6] was “Not Active”, the Ki [6] was “Not Active” and the IC50 [7] was “Not Active”. The Ki [7] was “Not Active”.
With COLISTIN the IC50 [1] was “Not Active”, the Ki [1] was “Not Active” and the IC50 ([2]; read-out: IC50) was 0.959 µM. For the same molecule, the IC50 [3] was “Not Active”, the Ki [3] was “Not Active” and the IC50 [4] was “Not Active”. The Ki [4] was “Not Active”, the IC50 (Cytochrome P450 2C9) was “Not Active” and the Ki (Cytochrome P450 2C9) was “Not Active”. The IC50 [5] was “Not Active”, the Ki [5] was “Not Active” and the IC50 [6] was “Not Active”. The Ki [6] was “Not Active”, the IC50 [7] was “Not Active” and the Ki [7] was “Not Active”.
In the case of `CCN(C(C)=O)c1cccc(-c2ccnc3c(C#N)cnn23)c1` [ZALEPLON], the IC50 [1] is reported as “Not Active”, the IC50 [2] is reported as “Not Active” and the IC50 [3] is reported as “Not Active”. For the same molecule, the IC50 [4] was “Not Active”, the IC50 (Cytochrome P450 2C9) was “Not Active” and the Ki (Cytochrome P450 2C9) was “Not Active”. For the same molecule, the IC50 [5] was “Not Active”, the Ki [5] was “Not Active” and the IC50 [6] was “Not Active”. For the same molecule, the Ki [6] was “Not Active”, the IC50 [7] was “Not Active” and the Ki [7] was “Not Active”.
In the case of `CN1C(=O)CN=C(c2ccccc2)c2cc([N+](=O)[O-])ccc21` [NIMETAZEPAM], the IC50 [1] is reported as “Not Active”, the IC50 [2] is reported as “Not Active” and the IC50 [3] is reported as “Not Active”. For the same molecule, the IC50 [4] was “Not Active”, the IC50 (Cytochrome P450 2C9) was “Not Active” and the Ki (Cytochrome P450 2C9) was “Not Active”. The IC50 [5] was “Not Active”, the Ki [5] was “Not Active” and the IC50 [6] was “Not Active”. For the same molecule, the Ki [6] was “Not Active”, the IC50 [7] was “Not Active” and the Ki [7] was “Not Active”.
In the case of `ClC(Cl)(Cl)Cl` [CARBON TETRACHLORIDE], the IC50 [1] is reported as “Not Active”, the IC50 [2] is reported as “Not Active” and the IC50 [3] is reported as “Not Active”. For the same molecule, the IC50 [4] was “Not Active”, the IC50 (Cytochrome P450 2C9) was “Not Active” and the Ki (Cytochrome P450 2C9) was “Not Active”. The IC50 [5] was “Not Active”, the Ki [5] was “Not Active” and the IC50 [6] was “Not Active”. The Ki [6] was “Not Active”, the IC50 [7] was “Not Active” and the Ki [7] was “Not Active”.
For `CN(C)CCC=C1c2ccccc2CCc2ccccc21` [AMITRIPTYLINE], the IC50 [1] was “Not Active”, the IC50 [2] was “Not Active” and the IC50 [3] was “Not Active”. The IC50 [4] was “Not Active”, the IC50 (Cytochrome P450 2C9) was “Not Active” and the Ki (Cytochrome P450 2C9) was “Not Active”. For the same molecule, the IC50 [5] was “Not Active”, the Ki [5] was “Not Active” and the IC50 [6] was “Not Active”. The Ki [6] was “Not Active”, the IC50 [7] was “Not Active” and the Ki [7] was “Not Active”.
For `C[C@]12CC[C@H]3[C@@H](CCC4=CC(=O)CC[C@@H]43)[C@@H]1CC[C@@H]2O` [NANDROLONE], the IC50 [1] was “Not Active”, the IC50 [2] was “Not Active” and the IC50 [3] was “Not Active”. The IC50 [4] was “Not Active”, the IC50 (Cytochrome P450 2C9) was “Not Active” and the Ki (Cytochrome P450 2C9) was “Not Active”. For the same molecule, the IC50 [5] was “Not Active”, the Ki [5] was “Not Active” and the IC50 [6] was “Not Active”. The Ki [6] was “Not Active”, the IC50 [7] was “Not Active” and the Ki [7] was “Not Active”.
In the case of `COc1cccc2c1C(=O)c1c(O)c3c(c(O)c1C2=O)C[C@@](O)(C(C)=O)C[C@@H]3O[C@H]1C[C@H](N)[C@H](O)[C@H](C)O1` [DAUNORUBICIN], the IC50 [1] is reported as “Not Active”, the IC50 [2] is reported as “Not Active” and the IC50 [3] is reported as “Not Active”. The IC50 [4] was “Not Active”, the IC50 (Cytochrome P450 2C9) was “Not Active” and the Ki (Cytochrome P450 2C9) was “Not Active”. The IC50 [5] was “Not Active”, the Ki [5] was “Not Active” and the IC50 [6] was “Not Active”. For the same molecule, the Ki [6] was “Not Active”, the IC50 [7] was “Not Active” and the Ki [7] was “Not Active”.
In the case of `CC(O)(P(=O)(O)O)P(=O)(O)O` [ETIDRONIC ACID], the IC50 [1] is reported as “Not Active”, the IC50 [2] is reported as “Not Active” and the IC50 [3] is reported as “Not Active”. For the same molecule, the IC50 [4] was “Not Active”, the IC50 (Cytochrome P450 2C9) was “Not Active” and the Ki (Cytochrome P450 2C9) was “Not Active”. The IC50 [5] was “Not Active”, the Ki [5] was “Not Active” and the IC50 [6] was “Not Active”. The Ki [6] was “Not Active”, the IC50 [7] was “Not Active” and the Ki [7] was “Not Active”.
